What was measured:
Type in all cases: cell-based
[1] = system: Ishikawa (K-Ras wild type cell line); experiment: Viability assay (CellTiterBlue, 72 hr) Ishikawa; conditions: Homo sapiens, GI50, CellTiterBlue, Ishikawa K-Ras wild-type
In short: (§1)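 Each line was plated at 1000 cells per well and incubated for 72 hr with compound after an 18 hr settling period. CellTiterBlue fluorescence measured the result, and GI50 was fitted relative to DMSO and tamoxifen controls.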

[2] = system: U87-MG (K-Ras wild type cell line); experiment: Viability assay (CellTiterBlue, 72 hr) U87-MG; conditions: Homo sapiens, U-87 MG, GI50, CellTiterBlue, U87-MG K-Ras wild-type
In short: as §1

[3] = system: HCC827 (K-Ras wild type cell line); experiment: Viability assay (CellTiterBlue, 72 hr) HCC827; conditions: Homo sapiens, GI50, CellTiterBlue, HCC827 K-Ras wild-type
In short: as §1

Panc1-G12D = experiment: Viability assay (CellTiterBlue, 72 hr) Panc1; conditions: Homo sapiens, PANC-1, GI50, CellTiterBlue, Panc1 K-Ras G12D, read-out: 72 hr Cell Viability Panc1 (G12D)
In short: as §1

Panc10.05-G12D = experiment: Viability assay (CellTiterBlue, 72 hr) Panc10.05; conditions: Homo sapiens, Panc1005, GI50, CellTiterBlue, Panc10.05 K-Ras G12D, read-out: 72 hr Cell Viability Panc10.05 (G12D)
In short: as §1

HCT116-G31D = experiment: Viability assay (CellTiterBlue, 72 hr) HCT116; conditions: Homo sapiens, HCT-116, GI50, CellTiterBlue, HCT116 K-Ras G13D, read-out: 72 hr Cell Viability HCT116 (G13D)
In short: as §1

[4] = system: phospho-ERK in HCC827 (Wild-type); experiment: In-Cell Western phospho-ERK, HCC827; conditions: Homo sapiens, 1 h; HCC827, one hour treatment; read-out: In-Cell Western HCC827 (Wild-type) Erk (P)
In short: (§2)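 Cells were seeded at 3000 cells/well, incubated 18 hr at 37° C, then treated with compound for 1 hr (0.5% DMSO final). After fixation, permeabilization and blocking, phospho-Akt or phospho-ERK antibodies were applied overnight at 4° C, followed by secondary antibody; cellular fluorescence was imaged and EC50 calculated.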

[5] = system: phospho-Akt in HCC827 (Wild-type); experiment: In-Cell Western phospho-Akt, HCC827; conditions: Homo sapiens, 1 h; HCC827, one hour treatment; read-out: In-Cell Western HCC827 (Wild-type) Akt (P)
Method: In-cell phosphorylation assays for Erk and Akt were performed on several of the compounds and exemplary results are shown in Table 3 below using HCC827 and A375 cell lines for wild type K-Ras and Panc1 and Panc10.05 cell lines for G12D K-Ras mutants. Results are expressed in μM and corresponding structures are shown in FIGS. 2A-2G and Examples 1-152, above.
Cells are seeded in complete medium into black sided, clear-bottom 384-well microplates at 3000 cells/[…]/well. Plates are returned to 37° C. CO2 incubator for 18 hr. Drug is made as 200× in DMSO and diluted into medium to 10×. To each well is added 4 ul 10× test article or controls, and plates are returned to the incubator. Final assay DMSO concentration is 0.5%. After one hour, cells are fixed in formaldehyde, rinsed & permeabilized with triton X-100, and blocked with BSA/Goat serum blocking solution. Primary phospho-Akt and phospho-ERK antibodies are added and plates are incubated overnight at 4° C. Plates are rinsed with Tween-20 wash buffer and secondary antibody (Goat anti-rabbit, Thermofisher) is added. After 2 hours, plates are rinsed in Tween-20 wash buffer, and then PBS. Plates are imaged on the Celigo (Nexcelom) and cellular fluorescence is quantitated. Full inhibition of phospho-Akt is achieved with 1 uM BEZ235 (Sellekchem), while full inhibition of phospho-ERK is achieved with 1 uM MEK Inhibitor II Calbiochem). EC50 values are calculated using Graphpad Prism.

[6] = system: phospho-ERK in Panc1 (G12D); experiment: In-Cell Western phospho-ERK, Panc1; conditions: Homo sapiens, PANC-1, 1 h; Panc1, one hour treatment; read-out: In-Cell Western Panc1 (G12D) Erk (P)
In short: as §2

[7] = system: phospho-Akt in Panc1 (G12D); experiment: In-Cell Western phospho-Akt, Panc1; conditions: Homo sapiens, PANC-1, 1 h; Panc1, one hour treatment; read-out: In-Cell Western Panc1 (G12D) Akt (P)
In short: as §2

K-Ras G12D = target: T1, K-Ras G12D (Homo sapiens, UniProt P01116, G12D); experiment: G-LISA Ras activation, 293H cells transfected with G12D mutant; conditions: compound 1 hour
T1 construct: expressed in transfected cells; host or cells: 293H cells
In short: (§3)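 Active Ras was quantified by G-LISA in lysates of 293H cells transiently expressing wild-type or mutant Ras. Compounds (3.125-25 μM) were applied for 1 hour; only wild-type transfected cells were stimulated with 100 ng/ml EGF for 2 minutes.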

wild type K-Ras = target: T2, wild type K-Ras (Homo sapiens, UniProt P01116); experiment: G-LISA Ras activation, 293H cells transfected with Ras wild-type, EGF stimulated; conditions: compound 1 hour, then 100 ng/ml EGF 2 minutes
T2 construct: expressed in transfected cells; host or cells: 293H cells
In short: as §3

[8] = system: A375 (K-Ras wild type cell line); experiment: Viability assay (CellTiterBlue, 72 hr) A375; conditions: Homo sapiens, A-375, GI50, CellTiterBlue
In short: as §1

[9] = system: phospho-ERK in A375 (Wild-type); experiment: In-Cell Western phospho-ERK, A375; conditions: Homo sapiens, A-375, 1 h; A375, one hour treatment; read-out: In-Cell Western A375 (Wild-type) Erk (P)
In short: as §2

[10] = system: phospho-Akt in A375 (Wild-type); experiment: In-Cell Western phospho-Akt, A375; conditions: Homo sapiens, A-375, 1 h; A375, one hour treatment; read-out: In-Cell Western A375 (Wild-type) Akt (P)
In short: as §2

[11] = system: phospho-ERK in Panc10.05 (G12D); experiment: In-Cell Western phospho-ERK, Panc10.05; conditions: Homo sapiens, Panc1005, 1 h; Panc10.05, one hour treatment; read-out: In-Cell Western Panc10.05 (G12D) Erk (P)
In short: as §2

[12] = system: phospho-Akt in Panc10.05 (G12D); experiment: In-Cell Western phospho-Akt, Panc10.05; conditions: Homo sapiens, Panc1005, 1 h; Panc10.05, one hour treatment; read-out: In-Cell Western Panc10.05 (G12D) Akt (P)
In short: as §2

T1 sequence (P01116 whole entry G12D): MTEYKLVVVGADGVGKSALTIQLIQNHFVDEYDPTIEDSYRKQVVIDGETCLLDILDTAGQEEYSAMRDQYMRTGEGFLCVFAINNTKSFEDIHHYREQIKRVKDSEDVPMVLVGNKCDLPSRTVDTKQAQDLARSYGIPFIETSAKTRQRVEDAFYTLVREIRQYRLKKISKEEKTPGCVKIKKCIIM
T2 sequence (P01116 whole entry): as the sequence (P01116 whole entry G12D) above, with D12G counted along it

Row | SMILES | IC50 [1] [µM] | IC50 [2] [µM] | IC50 [3] [µM] | IC50 (Panc1-G12D) [µM] | IC50 (Panc10.05-G12D) [µM] | IC50 (HCT116-G31D) [µM] | EC50 [4] [µM] | EC50 [5] [µM] | EC50 [6] [µM] | EC50 [7] [µM] | IC50 (K-Ras G12D) [µM] | IC50 (wild type K-Ras) [µM] | IC50 [8] [µM] | EC50 [9] [µM] | EC50 [10] [µM] | EC50 [11] [µM] | EC50 [12] [µM]
1 | Cn1cc(C(=O)Nc2nc(-c3ccc4c(c3)CCC(=O)N4)cs2)c(C(F)F)n1 [Compound 27, 3-(difluoromethyl)-1-methyl-N-(4-(2-oxo-1,2,3,4-tetrahydroquinolin-6-yl)thiazol-2-yl)-1H-pyrazole-4-carboxamide] | > 25 | > 25 | > 25 | > 25 | 16 | > 25 | > 25 | > 25 | 14 | > 25 | – | – | – | – | – | – | –
2 | Cn1cc(C(=O)Nc2nc(-c3ccc4c(c3)CCC(=O)N4)cs2)cn1 [Compound 28, 1-methyl-N-(4-(2-oxo-1,2,3,4-tetrahydroquinolin-6-yl)thiazol-2-yl)-1H-pyrazole-4-carboxamide] | > 25 | > 25 | > 25 | > 25 | > 25 | > 25 | 16 | > 25 | > 25 | > 25 | – | – | – | – | – | – | –
3 | Cn1cc(C(=O)Nc2nc(-c3ccc4c(c3)CCC(=O)N4)cs2)c(-c2ccccc2)n1 [Compound 29, 1-methyl-N-(4-(2-oxo-1,2,3,4-tetrahydroquinolin-6-yl)thiazol-2-yl)-3-phenyl-1H-pyrazole-4-carboxamide] | > 25 | > 25 | > 25 | > 25 | > 25 | > 25 | 21 | > 25 | 13 | > 25 | – | – | – | – | – | – | –
4 | Cn1cc(C(=O)Nc2nc(-c3ccc4c(c3)CCC(=O)N4)cs2)c(C(F)(F)F)n1 [Compound 30, 1-methyl-N-(4-(2-oxo-1,2,3,4-tetrahydroquinolin-6-yl)thiazol-2-yl)-3-(trifluoromethyl)-1H-pyrazole-4-carboxamide] | 18 | > 25 | > 25 | > 25 | 23 | > 25 | 16 | > 25 | 8 | > 25 | > 25 | – | – | – | – | – | –
5 | Cc1nn(-c2ccccc2)cc1C(=O)Nc1nc(-c2ccc3c(c2)CCC(=O)N3)cs1 [Compound 31, 3-methyl-N-(4-(2-oxo-1,2,3,4-tetrahydroquinolin-6-yl)thiazol-2-yl)-1-phenyl-1H-pyrazole-4-carboxamide] | > 25 | > 25 | > 25 | > 25 | > 25 | > 25 | > 25 | > 25 | > 25 | > 25 | – | – | – | – | – | – | –
6 | CC(C)c1nn(C)cc1C(=O)Nc1nc(-c2ccc3c(c2)CCC(=O)N3)cs1 [Compound 32, 3-isopropyl-1-methyl-N-(4-(2-oxo-1,2,3,4-tetrahydroquinolin-6-yl)thiazol-2-yl)-1H-pyrazole-4-carboxamide] | > 25 | 9 | 8 | > 25 | > 25 | > 25 | 20 | > 25 | > 25 | 26 | – | – | – | – | – | – | –
7 | Cn1cc(C(=O)Nc2nc(-c3ccc4c(c3)CCC(=O)N4)cs2)c(C(C)(C)C)n1 [Compound 38, 3-(tert-butyl)-1-methyl-N-(4-(2-oxo-1,2,3,4-tetrahydroquinolin-6-yl)thiazol-2-yl)-1H-pyrazole-4-carboxamide] | 7 | > 25 | > 25 | > 25 | 7 | > 25 | 13 | > 25 | > 25 | 24 | – | – | – | – | – | – | –
8 | CCn1cc(C(=O)Nc2nc(-c3ccc4c(c3)CCC(=O)N4)cs2)c(C(F)(F)F)n1 [Compound 39, 1-ethyl-N-(4-(2-oxo-1,2,3,4-tetrahydroquinolin-6-yl)thiazol-2-yl)-3-(trifluoromethyl)-1-pyrazole-4-carboxamide] | > 25 | > 25 | > 25 | > 25 | > 25 | > 25 | > 25 | > 25 | 28 | > 25 | – | – | – | – | – | – | –
9 | COc1nn(C)cc1C(=O)Nc1nc(-c2ccc3c(c2)CCC(=O)N3)cs1 [Compound 42, 3-methoxy-1-methyl-N-(4-(2-oxo-1,2,3,4-tetrahydroquinolin-6-yl)thiazol-2-yl)-1H-pyrazole-4-carboxamide] | > 25 | > 25 | > 25 | > 25 | > 25 | > 25 | > 25 | > 25 | > 25 | > 25 | – | – | – | – | – | – | –
10 | Cc1nn(C)c(C)c1C(=O)Nc1nc(-c2ccc3c(c2)CCC(=O)N3Cc2cccnc2)cs1 [Compound 113, 1,3,5-trimethyl-N-(4-(2-oxo-1-(pyridin-3-ylmethyl)-1,2,3,4-tetrahydroquinolin-6-yl)thiazol-2-yl)-1H-pyrazole-4-carboxamide] | > 25 | > 25 | > 25 | 19 | 2 | 11 | 6 | – | 2 | > 25 | 6.3 | 9.6 | 14 | 13 | > 25 | 7 | > 25
11 | CCn1nc(C)c(C(=O)Nc2nc(-c3ccc4c(c3)CCC(=O)N4Cc3cccnc3)cs2)c1C [Compound 114, 1-ethyl-3,5-dimethyl-N-(4-(2-oxo-1-(pyridin-3-ylmethyl)-1,2,3,4-tetrahydroquinolin-6-yl)thiazol-2-yl)-1H-pyrazole-4-carboxamide] | > 25 | > 25 | > 25 | 22 | 1.1 | 5 | 4 | – | 1.1 | 17 | 3 | 6 | 6 | 5 | > 25 | 1.9 | 17

Source: patent US10344026B2, “Compositions and methods of targeting mutant K-ras” (NANTBIO, INC., priority 2017, dated 2019)
